# According to ChEMBL document CHEMBL5042495, “Lead Optimization of Influenza Virus RNA Polymerase Inhibitors Targeting PA-PB1 Interaction” (J Med Chem, 2022):
# Tests used:
# Influenza A virus = test: Antiviral activity against Influenza A virus A/WSN/33(H1N1) strain infected in MDCK cells assessed as reduction in viral infection incubated for 48 hrs by crystal violet staining based assay; type: functional, organism-based
# [1] = Cytotoxicity in dog MDCK cells assessed as reduction in cell viability incubated for 48 hrs by crystal violet staining based assay; type: toxicity, Canis lupus familiaris
Structure (SMILES),EC50 (Influenza A virus) [µM],CC50 at 48 h [1] [µM]
Cc1ccc2[nH]c(=O)c(C(C#N)N(Cc3ccccc3)Cc3ccc(C(C)C)cc3)cc2c1 (centres undefined),15,> 83
CC(c1ccc(N(C)C)c(Cl)c1)N(Cc1ccc(C(C)(C)C)cc1)Cc1cc2cc(C3CC3)ccc2[nH]c1=O (centres undefined),0.09,> 10
C[C@@H](c1ccc(OC(F)(F)F)cc1)N(Cc1ccc(C(C)(C)C)cc1)Cc1cc2cc(C(F)(F)F)ccc2[nH]c1=O,0.26,> 10
CC(c1ccc(OC(F)(F)F)c(Cl)c1)N(Cc1ccc(C(C)(C)C)cc1)Cc1cc2cc(Br)ccc2[nH]c1=O (centres undefined),0.28,> 10
CCOc1ccc(CN(Cc2ccc(C(C)(C)C)cc2)Cc2cc3cc(C)ccc3[nH]c2=O)cc1,0.54,> 10
COc1ccc([C@H](C)N(Cc2ccc(OC(F)(F)F)cc2)Cc2cc3ccccc3[nH]c2=O)cc1,1.9,> 10
COc1ccc([C@H](C)N(Cc2ccc(C(C)(C)C)cc2)Cc2cc3cc(C(C)C)ccc3[nH]c2=O)cc1,0.48,> 10
CCc1ccc2[nH]c(=O)c(CN(Cc3ccc(F)cc3)Cc3ccc(C(C)(C)C)cc3)cc2c1,0.64,> 33
Cc1ccc2cc(CN(Cc3ccc(C(C)C)cc3)Cc3ccccc3F)c(=O)[nH]c2c1,1.8,> 33
CCc1ccc2[nH]c(=O)c(CN(Cc3ccc(C(C)(C)C)cc3)C(C)c3ccc(F)cc3)cc2c1 (centres undefined),0.52,2.8
COc1ccc([C@H](C)N(Cc2ccc(C(C)(C)C)cc2)Cc2cc3ccccc3[nH]c2=O)cc1,–,1.8
Cc1ccc2[nH]c(=O)c(CN(Cc3ccc(F)cc3)Cc3ccc(-c4ccccc4)cc3)cc2c1,–,> 5
Cc1ccc2[nH]c(=O)c(CN(Cc3cccc(F)c3)Cc3ccc4ccccc4c3)cc2c1,3.1,> 5
COc1ccc(C(C)N(Cc2ccc(C(C)(C)C)cc2)Cc2cc3cc(C)ccc3[nH]c2=O)cc1Cl (centres undefined),0.11,> 10
Cc1ccc2[nH]c(=O)c(CN(Cc3ccc(F)cc3)Cc3cccc4ccccc34)cc2c1,1.8,> 5
CCc1ccc2[nH]c(=O)c(CN(Cc3ccc(F)cc3)Cc3cccc4ccccc34)cc2c1,–,> 5
CN(C)c1ccc(CN(Cc2ccc(C(C)(C)C)cc2)Cc2cc3cc(Cl)ccc3[nH]c2=O)cc1,1.5,> 10
Cc1cccc2cc(C(C#N)N(Cc3ccccc3)Cc3ccc(C(C)C)cc3)c(=O)[nH]c12 (centres undefined),16,> 83
CC(c1ccc(OC(F)(F)F)c(Cl)c1)N(Cc1ccc(C(C)(C)C)cc1)Cc1cc2cc(C3CC3)ccc2[nH]c1=O (centres undefined),1.2,> 10
Cc1ccc2cc(C(C#N)N(Cc3ccc(F)cc3)Cc3ccc(C(C)C)cc3)c(=O)[nH]c2c1 (centres undefined),54,21
Cc1ccc2cc(C(N(Cc3ccc(F)cc3)Cc3ccc(C(C)C)cc3)C(F)(F)F)c(=O)[nH]c2c1 (centres undefined),–,> 33
COc1ccc([C@H](C)N(Cc2ccc(C(C)(C)C)cc2)Cc2cc3cc(OC)ccc3[nH]c2=O)cc1,0.12,4.1
COc1ccc(CN(Cc2ccc(C(C)(C)C)cc2)Cc2cc3cc(C)ccc3[nH]c2=O)cc1,0.33,> 10
COc1ccc(C(C)N(Cc2ccc(C(C)(C)C)cc2)Cc2cc3cc(C)ccc3[nH]c2=O)cc1 (centres undefined),0.26,> 5
Cc1ccc2[nH]c(=O)c(CN(Cc3ccc(C(C)(C)C)cc3)Cc3ccc(N(C)C)c(Cl)c3)cc2c1,0.22,> 10

Structure (SMILES),EC50 (Influenza A virus) [µM],CC50 at 48 h [1] [µM]
C[C@H](c1ccc(OC(F)(F)F)cc1)N(Cc1ccc(C(C)(C)C)cc1)Cc1cc2cc(C3CC3)ccc2[nH]c1=O,2.01,–
CCCc1ccc2[nH]c(=O)c(CN(Cc3ccc(F)cc3)Cc3ccc(C(C)(C)C)cc3)cc2c1,28,8.4
Cc1ccc2[nH]c(=O)c(CN(Cc3ccc(C(C)(C)C)cc3)[C@H](C)c3ccc(F)cc3)cc2c1,–,> 5
Cc1ccc2cc(CNCc3ccc(F)cc3)c(=O)[nH]c2c1,–,> 33
Cc1ccc2cc(CN(Cc3ccc(F)cc3)Cc3ccc(C(C)C)cc3)c(=O)[nH]c2c1,2,> 33
Cc1ccc2[nH]c(=O)c(CN(Cc3ccc(C(C)(C)C)cc3)[C@H](CO)c3ccccc3)cc2c1,–,> 10
CCc1ccc2[nH]c(=O)c(CN(Cc3ccc(F)cc3)Cc3ccc4ccccc4c3)cc2c1,2.1,> 5
COc1ccc([C@H](C)N(Cc2ccc(C(C)(C)C)cc2)Cc2cc3cc(C4CC4)ccc3[nH]c2=O)cc1,0.16,> 10
CCc1ccc2[nH]c(=O)c(CN(CCCO)Cc3ccc(C(C)(C)C)cc3)cc2c1,–,> 10
CC(C)c1ccc2[nH]c(=O)c(CN(Cc3ccc(F)cc3)Cc3ccc(C(C)(C)C)cc3)cc2c1,1.9,7.9
Cc1ccc2[nH]c(=O)c(CN(Cc3ccc(OC(F)(F)F)cc3)Cc3ccc(C(C)(C)C)cc3)cc2c1,0.49,> 5
Cc1ccc2[nH]c(=O)c(CN(Cc3ccc(SC(F)F)cc3)Cc3ccc(C(C)(C)C)cc3)cc2c1,0.65,> 5
CSc1ccc(CN(Cc2ccc(C(C)(C)C)cc2)Cc2cc3cc(C)ccc3[nH]c2=O)cc1,0.51,> 5
Cc1ccc2[nH]c(=O)c(CN(Cc3ccc(OC(C)C)cc3)Cc3ccc(C(C)(C)C)cc3)cc2c1,1.5,> 5
CC(c1ccc(N(C)C)c(Cl)c1)N(Cc1ccc(C(C)(C)C)cc1)Cc1cc2cc(Br)ccc2[nH]c1=O (centres undefined),0.1,6.1
C[C@@H](c1ccc(OC(F)(F)F)cc1)N(Cc1ccc(C(F)(F)F)c(Cl)c1)Cc1cc2cc(C3CC3)ccc2[nH]c1=O,0.12,7.9
Cc1ccc2cc(CN(Cc3ccc(C(C)(C)C)cc3)Cc3cc(F)cc(F)c3)c(=O)[nH]c2c1,3.5,> 33
Cc1ccc2[nH]c(=O)c(CN(Cc3ccc(C(N)=O)cc3)Cc3ccc(C(C)(C)C)cc3)cc2c1,–,> 5
Cc1ccc2[nH]c(=O)c(CN(Cc3ccc(F)cc3)Cc3ccc(C(C)(C)C)cc3)cc2c1,0.39,> 27
Cc1ccc2[nH]c(=O)c(CN(Cc3ccc(N(C)C)cc3)Cc3ccc(C(C)(C)C)cc3)cc2c1,0.46,> 5
COCOc1ccc(CN(Cc2ccc(C(C)(C)C)cc2)Cc2cc3cc(C)ccc3[nH]c2=O)cc1,0.38,6.4
CN(C)c1ccc(CN(Cc2ccc(C(C)(C)C)cc2)Cc2cc3cc(Br)ccc3[nH]c2=O)cc1,0.53,> 10
CCc1ccc2[nH]c(=O)c(CN(Cc3cccc(F)c3)Cc3ccc4ccccc4c3)cc2c1,4.1,> 5
Cc1ccc2cc(CN(Cc3ccc(C(C)C)cc3)Cc3cccc(F)c3)c(=O)[nH]c2c1,2.1,> 33
Cc1ccc2[nH]c(=O)c(CN(Cc3ccc(C(C)(C)C)cc3)[C@@H](C)c3ccc(F)cc3)cc2c1,0.5,> 5

Structure (SMILES),EC50 (Influenza A virus) [µM],CC50 at 48 h [1] [µM]
COc1ccc2[nH]c(=O)c(CN(Cc3ccc(N(C)C)cc3)Cc3ccc(C(C)(C)C)cc3)cc2c1,0.46,8.5
CCc1ccc(CN(Cc2ccc(F)cc2)Cc2cc3ccc(C)cc3[nH]c2=O)cc1,1.8,> 33
Cc1ccc2[nH]c(=O)c(CN(Cc3ccc(O)cc3)Cc3ccc(C(C)(C)C)cc3)cc2c1,2.1,4.9
CCc1ccc2[nH]c(=O)c(CN(Cc3ccc(C(C)(C)C)cc3)C(C)c3ccc(OC(F)F)cc3)cc2c1 (centres undefined),0.32,> 5
Cc1ccc2cc(C(C#N)N(Cc3ccccc3)Cc3ccc(C(C)C)cc3)c(=O)[nH]c2c1 (centres undefined),5.6,> 83
Cc1ccc2[nH]c(=O)c(CN(Cc3ccc(OCC(=O)O)cc3)Cc3ccc(C(C)(C)C)cc3)cc2c1,2.7,> 10
CCc1ccc2[nH]c(=O)c(CN(Cc3ccc(O)cc3)Cc3ccc(C(C)(C)C)cc3)cc2c1,1.8,> 10
Cc1ccc2cc(CN(Cc3ccc(Cl)cc3)Cc3ccc(C(C)C)cc3)c(=O)[nH]c2c1,6.1,> 33
CCCCC(c1cc2ccc(C)cc2[nH]c1=O)N(Cc1ccc(F)cc1)Cc1ccc(C(C)C)cc1 (centres undefined),–,> 33
Cc1ccc2cc(CN(Cc3ccc(C(C)(C)C)cc3)CC3CCCCC3)c(=O)[nH]c2c1,1.9,> 10
COc1ccc(C(C)N(Cc2ccc(C(C)(C)C)cc2)Cc2cc3cc(C4CC4)ccc3[nH]c2=O)cc1Cl (centres undefined),0.069,> 10
CCCCOc1ccc(CN(Cc2ccc(C(C)(C)C)cc2)Cc2cc3cc(C)ccc3[nH]c2=O)cc1,–,> 5
Cc1ccc2cc(CN(Cc3ccc(C(C)(C)C)cc3)C3CCCC3)c(=O)[nH]c2c1,–,> 10
CCc1ccc2cc(CN(Cc3ccc(C(C)(C)C)cc3)C3CCCC3)c(=O)[nH]c2c1,–,> 9
CC(c1ccc(N(C)C)c(Cl)c1)N(Cc1ccc(OC(F)(F)F)cc1)Cc1cc2cc(Br)ccc2[nH]c1=O (centres undefined),–,4.7
Cc1ccc2cc(CN(Cc3ccc(Cl)cc3)Cc3ccc(Cl)cc3)c(=O)[nH]c2c1,–,> 33
Cc1cccc2cc(CN(Cc3ccc(F)cc3)Cc3ccc(C(C)(C)C)cc3)c(=O)[nH]c12,1.8,–
Cc1ccc2[nH]c(=O)c(CN(CCCO)Cc3ccc(C(C)(C)C)cc3)cc2c1,–,> 10
CCc1ccc2[nH]c(=O)c(CN(Cc3ccc(C(C)(C)C)cc3)[C@H](CO)c3ccccc3)cc2c1,–,> 10
CCc1ccc2[nH]c(=O)c(CN(Cc3ccc(F)cc3)Cc3ccc(-c4ccccc4)cc3)cc2c1,–,> 5
CCc1ccc2[nH]c(=O)c(CN(Cc3ccc(C(C)(C)C)cc3)[C@H](C)c3ccc(F)cc3)cc2c1,–,> 5
COc1ccc(CN(Cc2ccc(C(C)(C)C)cc2)Cc2cc3ccccc3[nH]c2=O)cc1,–,1.8
Cc1ccc2[nH]c(=O)c(CN(Cc3ccc(OCCO)cc3)Cc3ccc(C(C)(C)C)cc3)cc2c1,–,> 5
Cc1ccc2cc(CN(Cc3ccc(F)cc3)C(=O)c3ccccc3)c(=O)[nH]c2c1,–,> 33
